Patent US12209154B2, “Polymer material” (MENICON CO., LTD., priority 2019, dated 2025)

Assay: Solubility of compatibilizing monomer in water at 25° C.
Type: physicochemical

SMILES | solubility
C=C(C)C(=O)OC12CC3CC(O)(CC(O)(C3)C1)C2 [DHADM] | < 10000 µg/mL
C=C(C)C(=O)OCC(O)CC(F)(F)C(F)(F)C(F)(F)C(F)(F)F (stereo not shown) [C4F9CH2CH(OH)CHMA] | < 10000 µg/mL
C=C(C)C(=O)OCC(O)COC(C)(C)C (stereo not shown) [tBu(OH)MA] | < 10000 µg/mL
C=C(C)C(=O)OCC(O)COCC(CC)CCCC (stereo not shown) [EH(OH)MA] | < 10000 µg/mL
C=C(C)C(=O)OCC(O)COC(=O)C1CCCCC1 (stereo not shown) [CyCO(OH)MA] | < 10000 µg/mL
C=CC(=O)OC12CC3CC(CC(O)(C3)C1)C2 [HADA] | < 10000 µg/mL
C=C(C)C(=O)OCC(O)COC(=O)C(C)(C)C (stereo not shown) [tBuCO(OH)MA] | < 10000 µg/mL
C=C(C)C(=O)OCC(O)COC(C)C (stereo not shown) [iPr(OH)MA] | < 10000 µg/mL
C=C(C)C(=O)OCC(O)COC(=O)C(O)CCCCCC (stereo not shown) [MA(OH)OCO(OH)Hp] | < 10000 µg/mL
C=C(C)C(=O)OCC(O)COC(=O)C12CC3CC(CC(C3)C1)C2 (stereo not shown) [AdaCO(OH)MA] | < 10000 µg/mL
